Test results as given in ChEMBL document CHEMBL3885861, “Open TG-GATES”.

Species: Rattus norvegicus
Test: Open TG-GATES - Regimen: Single
Format: toxicity, organism-based, Sprague-Dawley
Design: regimen Single, gender Male, age 6 weeks
Settings: in vivo, po, route gavage; for APTT / Bas / Eos / Fbg / Hb / Ht / Lym / MCH / MCHC / MCV / Mono / Neu / PT / Plat / RBC / Ret / WBC: tissue Blood; for KIDNEY_L / KIDNEY_R / KIDNEY_TOTAL: tissue Kidney; for LIVER: tissue Liver; for A/G / ALP / ALT / AST / BUN / CRE / Ca / Cl / DBIL / GLC / IP / K / LDH / Na / PL / RALB / TBIL / TC / TG / TP / gamma-GTP: tissue Plasma
[1] = 0 mg/kg, 3 h, dose level Control
[2] = 0 mg/kg, 6 h, dose level Control
[3] = 0 mg/kg, 9 h, dose level Control
[4] = 0 mg/kg, 24 h, dose level Control

## S=C=Nc1cccc2ccccc12 [1-NAPHTHYLISOTHIOCYANATE]
[1]
  TERMINAL_BW: 224.9 g
  APTT: 18.6 s
  Bas: 0%
  Eos: 1%
  Fbg: 223 mg/dL
  Hb: 13.7 g/dL
  Ht: 37.8%
  Lym: 78%
  MCH: 22.1 pg
  MCHC: 36.2%
  MCV: 61 fL
  Mono: 2.6%
  Neu: 17.6%
  PT: 11.9 s
  Plat: 124.1 x10_4/uL
  RBC: 619.8 x10_4/ul
  Ret: 8.2%
  WBC: 101.9 x10_2/uL
  KIDNEY_L: 1 g
  KIDNEY_R: 1 g
  KIDNEY_TOTAL: 2 g
  LIVER: 10.2 g
  A/G: 1.6
  ALP: 937 IU/L
  ALT: 37.6 IU/L
  AST: 73 IU/L
  BUN: 11.2 mg/dL
  CRE: 0.4 mg/dL
  Ca: 10.9 mg/dL
  Cl: 103.4 meq/L
  DBIL: 0.07 mg/dL
  GLC: 200.8 mg/dL
  IP: 9.4 mg/dL
  K: 3.9 meq/L
  LDH: 189.2 IU/L
  Na: 141.6 meq/L
  PL: 161.6 mg/dL
  RALB: 3.4 g/dL
  TBIL: 0.1 mg/dL
  TC: 81 mg/dL
  TG: 82.2 mg/dL
  TP: 5.5 g/dL
  gamma-GTP: 1 IU/L
[2]
  TERMINAL_BW: 218.1 g
  APTT: 18.7 s
  Bas: 0.2%
  Eos: 0.8%
  Fbg: 232.2 mg/dL
  Hb: 13.4 g/dL
  Ht: 37.2%
  Lym: 76%
  MCH: 22 pg
  MCHC: 36%
  MCV: 61.2 fL
  Mono: 3.4%
  Neu: 18.4%
  PT: 11.8 s
  Plat: 128 x10_4/uL
  RBC: 609.2 x10_4/ul
  Ret: 7.2%
  WBC: 106.9 x10_2/uL
  KIDNEY_L: 1 g
  KIDNEY_R: 1 g
  KIDNEY_TOTAL: 2 g
  LIVER: 9.6 g
  A/G: 1.8
  ALP: 1087 IU/L
  ALT: 35.6 IU/L
  AST: 71.8 IU/L
  BUN: 10 mg/dL
  CRE: 0.4 mg/dL
  Ca: 10.6 mg/dL
  Cl: 103.8 meq/L
  DBIL: 0.07 mg/dL
  GLC: 192 mg/dL
  IP: 10 mg/dL
  K: 3.8 meq/L
  LDH: 167.6 IU/L
  Na: 141.8 meq/L
  PL: 142.8 mg/dL
  RALB: 3.5 g/dL
  TBIL: 0.1 mg/dL
  TC: 76.2 mg/dL
  TG: 63.8 mg/dL
  TP: 5.4 g/dL
  gamma-GTP: 1 IU/L
[3]
  TERMINAL_BW: 216.9 g
  APTT: 17.6 s
  Bas: 0.2%
  Eos: 0.8%
  Fbg: 234.6 mg/dL
  Hb: 13.3 g/dL
  Ht: 36.8%
  Lym: 75%
  MCH: 21.7 pg
  MCHC: 36.1%
  MCV: 60.1 fL
  Mono: 2.2%
  Neu: 20.8%
  PT: 12.2 s
  Plat: 121.1 x10_4/uL
  RBC: 612 x10_4/ul
  Ret: 6.9%
  WBC: 90.1 x10_2/uL
  KIDNEY_L: 0.9 g
  KIDNEY_R: 1 g
  KIDNEY_TOTAL: 1.9 g
  LIVER: 8.8 g
  A/G: 1.8
  ALP: 908.4 IU/L
  ALT: 28.8 IU/L
  AST: 57.4 IU/L
  BUN: 10.8 mg/dL
  CRE: 0.4 mg/dL
  Ca: 10.7 mg/dL
  Cl: 103.6 meq/L
  DBIL: 0.07 mg/dL
  GLC: 201.4 mg/dL
  IP: 10.3 mg/dL
  K: 4 meq/L
  LDH: 145.6 IU/L
  Na: 141.8 meq/L
  PL: 139 mg/dL
  RALB: 3.5 g/dL
  TBIL: 0.1 mg/dL
  TC: 74.4 mg/dL
  TG: 50.8 mg/dL
  TP: 5.5 g/dL
  gamma-GTP: 1 IU/L
[4]
  TERMINAL_BW: 234.7 g
  APTT: 17.8 s
  Bas: 0.4%
  Eos: 0.8%
  Fbg: 222.8 mg/dL
  Hb: 13.4 g/dL
  Ht: 37.5%
  Lym: 81.6%
  MCH: 22.2 pg
  MCHC: 35.6%
  MCV: 62.5 fL
  Mono: 3%
  Neu: 13.6%
  PT: 11.7 s
  Plat: 128.7 x10_4/uL
  RBC: 601 x10_4/ul
  Ret: 6.6%
  WBC: 91.3 x10_2/uL
  KIDNEY_L: 1 g
  KIDNEY_R: 1 g
  KIDNEY_TOTAL: 2 g
  LIVER: 10.8 g
  A/G: 1.6
  ALP: 1087.6 IU/L
  ALT: 37.8 IU/L
  AST: 75.8 IU/L
  BUN: 15.2 mg/dL
  CRE: 0.4 mg/dL
  Ca: 10.8 mg/dL
  Cl: 103.6 meq/L
  DBIL: 0.062 mg/dL
  GLC: 188.8 mg/dL
  IP: 7.6 mg/dL
  K: 3.9 meq/L
  LDH: 214.6 IU/L
  Na: 141.6 meq/L
  PL: 140.4 mg/dL
  RALB: 3.4 g/dL
  TBIL: 0.1 mg/dL
  TC: 70.8 mg/dL
  TG: 100.2 mg/dL
  TP: 5.6 g/dL
  gamma-GTP: 1.2 IU/L
15 mg/kg, 3 h, dose level Low
  TERMINAL_BW: 226 g
  APTT: 18.2 s
  Bas: 0.2%
  Eos: 0.8%
  Fbg: 233 mg/dL
  Hb: 13.7 g/dL
  Ht: 38.1%
  Lym: 75.2%
  MCH: 22 pg
  MCHC: 35.8%
  MCV: 61.5 fL
  Mono: 3%
  Neu: 20%
  PT: 11.7 s
  Plat: 119.1 x10_4/uL
  RBC: 622.2 x10_4/ul
  Ret: 8.4%
  WBC: 91.8 x10_2/uL
  KIDNEY_L: 1 g
  KIDNEY_R: 1 g
  KIDNEY_TOTAL: 2 g
  LIVER: 10.2 g
  A/G: 1.6
  ALP: 1037.2 IU/L
  ALT: 42.2 IU/L
  AST: 75 IU/L
  BUN: 10.6 mg/dL
  CRE: 0.4 mg/dL
  Ca: 10.8 mg/dL
  Cl: 103.8 meq/L
  DBIL: 0.1 mg/dL
  GLC: 220.4 mg/dL
  IP: 10 mg/dL
  K: 4.1 meq/L
  LDH: 199.8 IU/L
  Na: 142 meq/L
  PL: 159.4 mg/dL
  RALB: 3.4 g/dL
  TBIL: 0.1 mg/dL
  TC: 75.2 mg/dL
  TG: 135.2 mg/dL
  TP: 5.6 g/dL
  gamma-GTP: 0.8 IU/L
15 mg/kg, 6 h, dose level Low
  TERMINAL_BW: 220 g
  APTT: 18.5 s
  Bas: 0%
  Eos: 0.8%
  Fbg: 243.4 mg/dL
  Hb: 13.8 g/dL
  Ht: 38.6%
  Lym: 75.2%
  MCH: 21.8 pg
  MCHC: 35.7%
  MCV: 60.9 fL
  Mono: 3.2%
  Neu: 19.8%
  PT: 11.8 s
  Plat: 120.7 x10_4/uL
  RBC: 634.6 x10_4/ul
  Ret: 7%
  WBC: 100.7 x10_2/uL
  KIDNEY_L: 1 g
  KIDNEY_R: 1 g
  KIDNEY_TOTAL: 1.9 g
  LIVER: 9.6 g
  A/G: 1.7
  ALP: 1074.4 IU/L
  ALT: 32.4 IU/L
  AST: 68.2 IU/L
  BUN: 8 mg/dL
  CRE: 0.4 mg/dL
  Ca: 10.5 mg/dL
  Cl: 103.8 meq/L
  DBIL: 0.1 mg/dL
  GLC: 235.8 mg/dL
  IP: 10 mg/dL
  K: 4.1 meq/L
  LDH: 196 IU/L
  Na: 141.6 meq/L
  PL: 140.2 mg/dL
  RALB: 3.5 g/dL
  TBIL: 0.1 mg/dL
  TC: 77 mg/dL
  TG: 61 mg/dL
  TP: 5.6 g/dL
  gamma-GTP: 1.2 IU/L
15 mg/kg, 9 h, dose level Low
  TERMINAL_BW: 215.5 g
  APTT: 18 s
  Bas: 0.2%
  Eos: 0.8%
  Fbg: 237 mg/dL
  Hb: 13.6 g/dL
  Ht: 38.1%
  Lym: 74.8%
  MCH: 21.5 pg
  MCHC: 35.6%
  MCV: 60.5 fL
  Mono: 2.4%
  Neu: 20.8%
  PT: 12.1 s
  Plat: 122.9 x10_4/uL
  RBC: 631.6 x10_4/ul
  Ret: 7.1%
  WBC: 92.1 x10_2/uL
  KIDNEY_L: 1 g
  KIDNEY_R: 0.9 g
  KIDNEY_TOTAL: 1.9 g
  LIVER: 8.7 g
  A/G: 1.7
  ALP: 1018.2 IU/L
  ALT: 35.8 IU/L
  AST: 72 IU/L
  BUN: 10.4 mg/dL
  CRE: 0.4 mg/dL
  Ca: 10.4 mg/dL
  Cl: 104 meq/L
  DBIL: 0.092 mg/dL
  GLC: 223 mg/dL
  IP: 10.1 mg/dL
  K: 3.8 meq/L
  LDH: 157.4 IU/L
  Na: 142.2 meq/L
  PL: 134.2 mg/dL
  RALB: 3.6 g/dL
  TBIL: 0.1 mg/dL
  TC: 73.2 mg/dL
  TG: 34.8 mg/dL
  TP: 5.7 g/dL
  gamma-GTP: 1 IU/L
15 mg/kg, 24 h, dose level Low
  TERMINAL_BW: 232.5 g
  APTT: 17.6 s
  Bas: 0.4%
  Eos: 0.8%
  Fbg: 217.8 mg/dL
  Hb: 13.9 g/dL
  Ht: 38.5%
  Lym: 80%
  MCH: 21.9 pg
  MCHC: 36%
  MCV: 60.8 fL
  Mono: 2%
  Neu: 16%
  PT: 11.9 s
  Plat: 122.9 x10_4/uL
  RBC: 633.6 x10_4/ul
  Ret: 6.5%
  WBC: 106 x10_2/uL
  KIDNEY_L: 1 g
  KIDNEY_R: 1 g
  KIDNEY_TOTAL: 2 g
  LIVER: 10.3 g
  A/G: 1.6
  ALP: 1064.4 IU/L
  ALT: 39.8 IU/L
  AST: 73.6 IU/L
  BUN: 15.6 mg/dL
  CRE: 0.4 mg/dL
  Ca: 10.6 mg/dL
  Cl: 103.8 meq/L
  DBIL: 0.068 mg/dL
  GLC: 198 mg/dL
  IP: 7.3 mg/dL
  K: 3.8 meq/L
  LDH: 209.4 IU/L
  Na: 141.6 meq/L
  PL: 131 mg/dL
  RALB: 3.4 g/dL
  TBIL: 0.1 mg/dL
  TC: 67.4 mg/dL
  TG: 84.2 mg/dL
  TP: 5.5 g/dL
  gamma-GTP: 1.6 IU/L
